Experimental data taken from patent publication US4994582A, “Novel antibiotic NK130119” (Nippon Kayaku Kabushiki Kaisha, priority 1989, dated 1991).
In brackets after ≈: the same amount, converted by molar mass.

Tests used:
Assay type in all cases: cell-based
Altenaria kikuchiana = experiment: antifungal spectrum on Czapek Dox solution agar; settings: read-out: Minimum inhibitory concentration
Description: (§1) the antifungal spectrum of the compound of the present invention was examined.

Aspergillus niger = experiment: antifungal spectrum on Czapek Dox solution agar; settings: read-out: Minimum inhibitory concentration
Description: as §1

Aspergillus oryzae = experiment: antifungal spectrum on Czapek Dox solution agar; settings: read-out: Minimum inhibitory concentration
Description: as §1

Candida albicans = experiment: antifungal spectrum on Czapek Dox solution agar; settings: read-out: Minimum inhibitory concentration
Description: as §1

Fusarium roseum f. sp. = experiment: antifungal spectrum on Czapek Dox solution agar; settings: Fusarium sambucinum, read-out: Minimum inhibitory concentration
Description: as §1

Mucor javanicus = experiment: antifungal spectrum on Czapek Dox solution agar; settings: read-out: Minimum inhibitory concentration
Description: as §1

Mycosphaerella melonis = experiment: antifungal spectrum on Czapek Dox solution agar; settings: read-out: Minimum inhibitory concentration
Description: as §1

Penicillium chrysogenum = experiment: antifungal spectrum on Czapek Dox solution agar; settings: read-out: Minimum inhibitory concentration
Description: as §1

Rhizopus hangchao = experiment: antifungal spectrum on Czapek Dox solution agar; settings: read-out: Minimum inhibitory concentration
Description: as §1

Saccharomyces cerevisiae = experiment: antifungal spectrum on Czapek Dox solution agar; settings: read-out: Minimum inhibitory concentration
Description: as §1

[1] = system: Sporobolomyces salmonicolor; experiment: antifungal spectrum on Czapek Dox solution agar; settings: read-out: Minimum inhibitory concentration
Description: as §1

HeLa S3 cells = experiment: growth-inhibitory effect on HeLa S3 culture cells, dye exclusion method; settings: Homo sapiens, 72 h
Experimental: The growth-inhibitory effect of the compound of the present invention on HeLa S3 culture cells was examined. A 96-well plate was inoculated with HeLa S3 cells at a ratio of 1.5×10^3 cells/well and incubated. One day after the inoculation, the compound of the present invention was added to the culture medium at various concentrations. Three days after the addition, cells in each well were counted by the dye exclusion method to thereby evaluate the growth-inhibitory effect of the compound of the present invention at various concentrations on HeLa S3 cells.

[2] = system: mouse colonic cancer cells (Colon 26); experiment: growth-inhibitory effect on mouse colonic cancer cells, dye exclusion method
Experimental: (§2) The growth-inhibitory effects of the compound of the present invention on mouse colonic cancer cells (Colon 26) and human colonic cancer cells (SW1116) were examined. A 96-well plate was inoculated with mouse colonic cancer cells at a ratio of 1.5×10^3 cells per well, while another 96-well plate was inoculated with human colonic cancer cells at a ratio of 3.0×10^3 per well. These cells were incubated in an incubator at 37° C. under 5% CO2 for 24 hours. Then the compound of the present invention was added thereto at various concentrations. Cells in each well were counted by the dye exclusion method 65 hours and 96 hours after the addition to thereby evaluate the growth-inhibitory effect of the test compound on the mouse colonic cancer cells and that on the human colonic cancer cells.

[3] = system: human colonic cancer cells (SW1116); experiment: growth-inhibitory effect on human colonic cancer cells, dye exclusion method; settings: SW 1116
Experimental: as §2

[4] = system: mouse pulmonary cancer cells (LL); experiment: growth-inhibitory effect on mouse pulmonary cancer cells, dye exclusion method; settings: 72 h, three days
Experimental: the growth-inhibitory effects of the compound of the present invention on mouse pulmonary cancer cells (LL) and human plumonary cancer cells (PC-3) were examined.
A 96-well plate was inoculated with mouse polmonary cancer cells at a ratio of 8.0×10^2 cells per well, while another 96-well plate was inoculated with human pulmonary cancer cells at a ratio of 2.5×10^3 per well. These cells were incubated in an incubator at 37° C. under 5% CO2 for 24 hours. Then the compound of the present invention was added thereto at various concentrations. Cells in each well were counted by the dye exclusion method three days after the addition to thereby evaluate the growth-inhibitory effect of the test compound on the mouse pulmonary cancer cells (LL) and that on the human pulmonary cancer cells (PC-3).

[5] = system: human melanoma cells (G361); experiment: growth-inhibitory effect on human melanoma cells, dye exclusion method; settings: G-361, 72 hours
Experimental: The growth-inhibitory effects of the compound of the present invention on mouse melanoma cells (B16) and human melanoma cells (G361) were examined. A 96-well plate was inoculated with mouse melanoma cells at a ratio of 1.5×10^3 cells per well, while another 96-well plate was inoculated with human melanoma cells at a ratio of 1.0×10^3 per well. These cells were incubated in an incubator at 37° C. under 5% CO2. Then the compound of the present invention was added thereto at various concentrations. Cells in each well were counted by the dye exclusion method 72 hours after the addition to thereby evaluate the growth-inhibitory effect of the test compound on the mouse melanoma cells and that on the human melanoma cells at various concentrations.

CCC1/C=C/C=C/CC(C)C(O)C(C)(O)C(=O)C(C)C(O)C(C)C(=O)C(C)C(O)C(C)/C=C/C(=O)OC2C(C)C(CC1)OC1(CCC(C)C(CC(C)O)O1)C2CC (centres unmarked) [NK130119]
MIC (Altenaria kikuchiana): 0.78 µg/mL (≈ 0.969 µM)
MIC (Aspergillus niger): 1.56 µg/mL (≈ 1.94 µM)
MIC (Aspergillus oryzae): 1.56 µg/mL (≈ 1.94 µM)
MIC (Candida albicans): > 100 µg/mL
MIC (Fusarium roseum f. sp.): 0.39 µg/mL (≈ 0.484 µM)
MIC (Mucor javanicus): > 100 µg/mL
MIC (Mycosphaerella melonis): 1.56 µg/mL (≈ 1.94 µM)
MIC (Penicillium chrysogenum): 0.78 µg/mL (≈ 0.969 µM)
MIC (Rhizopus hangchao): > 100 µg/mL
MIC (Saccharomyces cerevisiae): > 100 µg/mL
MIC [1]: > 100 µg/mL
inhibition at 0.039 µg/mL (HeLa S3 cells; HeLa S3, 0.039 μg/ml, three days, read-out: Growth-inhibitory ratio): 40%
inhibition at 0.156 µg/mL (HeLa S3 cells; HeLa S3, 0.156 μg/ml, three days, read-out: Growth-inhibitory ratio): 43.5%
inhibition at 0.625 µg/mL (HeLa S3 cells; HeLa S3, 0.625 μg/ml, three days, read-out: Growth-inhibitory ratio): 47.5%
inhibition at 2.5 µg/mL (HeLa S3 cells; HeLa S3, 2.5 μg/ml, three days, read-out: Growth-inhibitory ratio): 55.3%
inhibition at 10 µg/mL (HeLa S3 cells; HeLa S3, 10 μg/ml, three days, read-out: Growth-inhibitory ratio): 83.6%
IC50 (HeLa S3 cells; HeLa S3 cells, three days after addition): 0.987 µg/mL (≈ 1.23 µM)
inhibition at 0.0006 µg/mL ([2]; Mus musculus, Colon 26, 0.0006 μg/ml, read-out: Growth-inhibitory ratio): 2.54%
inhibition at 0.0024 µg/mL ([2]; Mus musculus, Colon 26, 0.0024 μg/ml, read-out: Growth-inhibitory ratio): 4.17%
inhibition at 0.0098 µg/mL ([2]; Mus musculus, Colon 26, 0.0098 μg/ml, read-out: Growth-inhibitory ratio): 41%
inhibition at 0.039 µg/mL ([2]; Mus musculus, Colon 26, 0.039 μg/ml, read-out: Growth-inhibitory ratio): 87.6%
inhibition at 0.156 µg/mL ([2]; Mus musculus, Colon 26, 0.156 μg/ml, read-out: Growth-inhibitory ratio): 90.3%
inhibition at 0.625 µg/mL ([2]; Mus musculus, Colon 26, 0.625 μg/ml, read-out: Growth-inhibitory ratio): 88.9%
inhibition at 2.5 µg/mL ([2]; Mus musculus, Colon 26, 2.5 μg/ml, read-out: Growth-inhibitory ratio): 96%
inhibition at 10 µg/mL ([2]; Mus musculus, Colon 26, 10 μg/ml, read-out: Growth-inhibitory ratio): 101%
IC50 ([2]; mouse colonic cancer cells (Colon 26), cells counted 65 hours and 96 hours after addition): < 0.025 µg/mL
inhibition at 0.0006 µg/mL ([3]; Homo sapiens, SW1116, 0.0006 μg/ml, read-out: Growth-inhibitory ratio): 2.29%
inhibition at 0.0024 µg/mL ([3]; Homo sapiens, SW1116, 0.0024 μg/ml, read-out: Growth-inhibitory ratio): -1.4%
inhibition at 0.0098 µg/mL ([3]; Homo sapiens, SW1116, 0.0098 μg/ml, read-out: Growth-inhibitory ratio): -0.24%
inhibition at 0.039 µg/mL ([3]; Homo sapiens, SW1116, 0.039 μg/ml, read-out: Growth-inhibitory ratio): 50.7%
inhibition at 0.156 µg/mL ([3]; Homo sapiens, SW1116, 0.156 μg/ml, read-out: Growth-inhibitory ratio): 50.3%
inhibition at 0.625 µg/mL ([3]; Homo sapiens, SW1116, 0.625 μg/ml, read-out: Growth-inhibitory ratio): 47.8%
inhibition at 2.5 µg/mL ([3]; Homo sapiens, SW1116, 2.5 μg/ml, read-out: Growth-inhibitory ratio): 47.2%
inhibition at 10 µg/mL ([3]; Homo sapiens, SW1116, 10 μg/ml, read-out: Growth-inhibitory ratio): 80.2%
IC50 ([3]; human colonic cancer cells (SW1116), cells counted 65 hours and 96 hours after addition): 2.8 µg/mL (≈ 3.48 µM)
IC50 ([4]; mouse pulmonary cancer cells (LL)): 0.0085 µg/mL (≈ 0.0106 µM)
inhibition at 0.0006 µg/mL ([4]; mouse pulmonary cancer cells, 0.0006 μg/ml, read-out: Growth-inhibitory ratio): 21.6%
inhibition at 0.0024 µg/mL ([4]; mouse pulmonary cancer cells, 0.0024 μg/ml, read-out: Growth-inhibitory ratio): 14.5%
inhibition at 0.0098 µg/mL ([4]; mouse pulmonary cancer cells, 0.0098 μg/ml, read-out: Growth-inhibitory ratio): 54.4%
inhibition at 0.039 µg/mL ([4]; mouse pulmonary cancer cells, 0.039 μg/ml, read-out: Growth-inhibitory ratio): 61%
inhibition at 0.156 µg/mL ([4]; mouse pulmonary cancer cells, 0.156 μg/ml, read-out: Growth-inhibitory ratio): 66.2%
inhibition at 0.625 µg/mL ([4]; mouse pulmonary cancer cells, 0.625 μg/ml, read-out: Growth-inhibitory ratio): 68.8%
inhibition at 2.5 µg/mL ([4]; mouse pulmonary cancer cells, 2.5 μg/ml, read-out: Growth-inhibitory ratio): 83.7%
inhibition at 10 µg/mL ([4]; mouse pulmonary cancer cells, 10 μg/ml, read-out: Growth-inhibitory ratio): 102%
IC50 ([5]; human melanoma cells (G361)): 1.63 µg/mL (≈ 2.02 µM)
inhibition at 0.0006 µg/mL ([5]; Homo sapiens, G361, 0.0006 μg/ml, read-out: Growth-inhibitory ratio): -2.01%
inhibition at 0.0024 µg/mL ([5]; Homo sapiens, G361, 0.0024 μg/ml, read-out: Growth-inhibitory ratio): 5.3%
inhibition at 0.0097 µg/mL ([5]; Homo sapiens, G361, 0.0097 μg/ml, read-out: Growth-inhibitory ratio): 10.8%
inhibition at 0.039 µg/mL ([5]; Homo sapiens, G361, 0.039 μg/ml, read-out: Growth-inhibitory ratio): 29.6%
inhibition at 0.156 µg/mL ([5]; Homo sapiens, G361, 0.156 μg/ml, read-out: Growth-inhibitory ratio): 33.9%
inhibition at 0.625 µg/mL ([5]; Homo sapiens, G361, 0.625 μg/ml, read-out: Growth-inhibitory ratio): 36%
inhibition at 2.5 µg/mL ([5]; Homo sapiens, G361, 2.5 μg/ml, read-out: Growth-inhibitory ratio): 56.2%
inhibition at 10 µg/mL ([5]; Homo sapiens, G361, 10 μg/ml, read-out: Growth-inhibitory ratio): 89.6%
